Results from patent US9758787B2, “Engineering microorganisms” (DSM NUTRITIONAL PRODUCTS AG, priority 2011, dated 2017).

Legend:
[1] = system: Thraustochytrium sp. ONC-T18; assay: Effects of different antibiotics on growth of ONC-T18 on ONC-T18-GM0 agar plates (Example 3); assay type: cell-based; parameters: sensitivity of ONC-T18 cells to zeocin: dose or concentration left out as unconfirmed
Procedure: Thraustochytrium sp. ONC-T18 was grown on agar plates (20 g agar per liter ONC-T18-GM0). One loop of inoculum of ONC-T18 was inoculated into 50 mL of liquid ONC-T18-GM0, and the culture was incubated in a shaker incubator at 25° C. at 250 rpm for 36 hours. Half a milliliter of the culture was transferred into a 1.5 mL tube and vortexed at full speed for 30 seconds to break down cell clusters, then diluted in 50 mL sterilized water. One hundred microliters of the resulting solution was spread onto each ONC-T18-GM0 medium plate. Each plate contained one of various antibiotics at one of various concentrations. Plates were incubated at 25° C. and emergence and development of colonies were observed daily.

[2] = system: Thraustochytrium sp. ONC-T18; assay: Effects of zeocin and salinity on colony numbers and colony diameter of ONC-T18 (Example 4); assay type: cell-based; conditions: for colony numbers: 10 days; for colony numbers / colony growth rates (diameter in mm): mean of two plates
Procedure: One hundred μL of ONC-T18 cell suspension diluted at 1:500 from a 2-day culture were spread onto ONC-T18-GM0 plates containing various concentrations of antibiotic zeocin and sea salt. Inoculated plates were incubated in a 25° C. incubator for 10 days. The numbers of the colonies on each plate were counted. […] In plates containing 8.5 g/L sea salt without zeocin, only one colony was observed. In plates containing 18 g/L sea salt without zeocin, colony numbers were similar to that of plates containing 35 g/L sea salt without zeocin. […] Therefore, for this work, 18 g/L sea salt was used to make ONC-T18-GM0 for selection of ONC-T18 transformants transformed with constructs bearing a zeocin-resistant gene expression cassette.

[3] = system: parental strain (the wild type strain) ONC-T18; assay: Zeocin sensitivity, spotted colonies on agar plates, parental strain (Example 8); assay type: cell-based, Thraustochytrium sp. ONC-T18; conditions: ONC-T18-GM0 agar plates, 18 g/L sea salt
Procedure: (§1) A very small amount of inoculum of zeocin-resistant strains that had been transferred three times via colony passages on zeocin/ONC-T18-GM0 agar plates (as well as their parental strain or the wild type strain) was picked from colonies using a 10 μL pipette tip and re-suspended in 50 μL sterilized water in a 200 μL PCR tube. One μL of the cell suspension was spotted on ONC-T18-GM0 agar plates containing 18 g/L sea salt (15 g/L agar) and zeocin at a concentration ranging from 0 to 5000 μg/mL (Invitrogen, CA, USA). The diameters of the spotted colonies were measured on day 1, day 3, day 5, day 7, and day 8.

[4] = system: transformed ONC-T18 strains bearing the zeocin-resistance gene expression cassette; assay: Zeocin sensitivity, spotted colonies on agar plates, transformed strains (Example 8); assay type: cell-based, Thraustochytrium sp. ONC-T18; conditions: 5000 μg/mL zeocin
Procedure: as §1

[5] = system: wild type ONC-T18 strains; assay: Growth on zeocin plates after six colony passages without zeocin, wild type (Example 12); assay type: cell-based, Thraustochytrium sp. ONC-T18; conditions: zeocin 200 μg/mL media
From the text: (§2) Transgene stability is important for certain applications of genetic engineering in industrial microbial strain improvement programs where microorganisms are used in pharmaceutical or industrial processes, and where product quantity and quality are paramount. We therefore carried out transgene stability estimate assays of transformed ONC-T18 strains. As for the growth rate assays described in Example 7, inocula of four strains of each transformation as well as their ancestor wild type strains were spotted on ONC-T18-GM0 agar plates in the absence of zeocin and incubated at 25° C. for seven days. (Each transformation had been performed using one of the five different plasmid constructs, each of which bears various zeocin-resistant gene expression cassettes driven by a combination of different promoters and terminators). Then, using the same method, strains were transferred on a new fresh ONC-T18-GM0 agar plate and incubated at 25° C. for 7 days; colony passages were carried out 6 times. Finally, strains were transferred back onto ONC-T18-GM0 agar plates either without or with zeocin at a concentration of 200 μg/mL media.

[6] = system: transformed ONC-T18 strains; assay: Growth on zeocin plates after six colony passages without zeocin, transformed strains (Example 12); assay type: cell-based, Thraustochytrium sp. ONC-T18; conditions: zeocin 200 μg/mL media
From the text: as §2

[7] = system: wild type strain of ONC-T18; assay: Zeocin as mutagenic agent on ONC-T18 agar plates (Example 13); assay type: cell-based, Thraustochytrium sp. ONC-T18
Procedure: The marine protist wild type strain of ONC-T18 was chosen as a model system to test if zeocin would be effective to induce mutagenesis in this strain. One full loop of the inocula of ONC-T18, growing in the agar plates containing ONC-T18-GM0 medium[5 g/L yeast extract, 5 g/L peptone, 10 g/L D(+)-glucose, 35 g/L artificial sea salt, 1.25 mg/L trace elements (5 g/L NaH2PO4.H2O, 3.15 g/L FeCl3.6H2O, 4.36 g/L Na2EDTA.2H2O, 0.6125 mg/L CuSO4.5H2O, 0.0597 g/L Na2MoO4.2H2O, 0.022 g/L ZnSO4.7H2O, 0.01 g/L CoCl2.6H2O, 0.18 g/L MnCl2.4H2O, 13 μg/L H2SeO3, 2.7 mg/L NiSO4.6H2O, 1.84 mg/L Na3VO4 and 1.94 mg/L K2CrO4), 1.25 mg/L vitamins (1 mg/L vitamin B12, 1 mg/L biotin, 0.20 g/L thiamine HCl) and 20 g agar per liter], was inoculated into 50 mL liquid ONC-T18-GM0 medium, and incubated in a shaker incubator at 25° C. at 250 rpm for 36 hours. Half a milliliter of culture was transferred into a 1.5 mL tube and vortexed at full speed for 30 seconds, and then diluted in 50 mL sterilized water. One hundred microliters of the diluted inocula were respectively spread on the agar plates containing zeocin at various concentrations (0, 10, 30, 50, and 100 μg/mL). Plates were incubated at 25° C. incubator. The emergence and development of the colonies were observed daily. […] Under these conditions, zeocin was effective within the range of at least 10-200 μg/mL; higher concentrations may well also be effective. For example, concentrations in the range of 200-500 μg/mL or higher could work. […] Under the particular conditions utilized in the present Example, zeocin worked best at 50 μg/mL.

[8] = cited from earlier work

SMILES: Cc1c(N)nc([C@H](CC(N)=O)NC[C@H](N)C(N)=O)nc1C(=O)N[C@H](C(=O)N[C@H](C)[C@@H](O)[C@H](C)C(=O)N[C@H](C(=O)NCCC1=N[C@@H](c2nc(C(=O)NCCCCN=C(N)N)cs2)CS1)[C@@H](C)O)[C@@H](O[C@@H]1O[C@@H](CO)[C@@H](O)[C@H](O)[C@@H]1O[C@H]1O[C@H](CO)[C@@H](O)[C@H](OC(N)=O)[C@@H]1O)c1cnc[nH]1 [Zeocin, phleomycin D1]
- sensitivity of ONC-T18 cells to zeocin [1]: highly sensitive
- effect on growth of ONC-T18 (summary in words) ([1]; ONC-T18-GM0 agar plates): significantly inhibited the growth
- zeocin concentration that completely inhibited growth of ONC-T18 ([2]; ONC-T18-GM0 agar plates containing 18 g/L sea salt): 30 µg/mL
- zeocin concentration needed for complete inhibition of ONC-T18 ([2]; ONC-T18-GM0 agar plates containing 35 g/L sea salt): 100 µg/mL
- colony numbers ([2]; salt 5 g/L, zeocin 10 μg/mL): 0
- colony growth rates (diameter in mm) ([2]; salt 5 g/L, zeocin 10 μg/mL): 0 mm
- colony numbers ([2]; salt 5 g/L, zeocin 30 μg/mL): 0
- colony growth rates (diameter in mm) ([2]; salt 5 g/L, zeocin 30 μg/mL): 0 mm
- colony numbers ([2]; salt 5 g/L, zeocin 50 μg/mL): 0
- colony growth rates (diameter in mm) ([2]; salt 5 g/L, zeocin 50 μg/mL): 0 mm
- colony numbers ([2]; salt 5 g/L, zeocin 100 μg/mL): 0
- colony growth rates (diameter in mm) ([2]; salt 5 g/L, zeocin 100 μg/mL): 0 mm
- colony numbers ([2]; salt 8.5 g/L, zeocin 10 μg/mL): 0
- colony growth rates (diameter in mm) ([2]; salt 8.5 g/L, zeocin 10 μg/mL): 0 mm
- colony numbers ([2]; salt 8.5 g/L, zeocin 30 μg/mL): 0
- colony growth rates (diameter in mm) ([2]; salt 8.5 g/L, zeocin 30 μg/mL): 0 mm
- colony numbers ([2]; salt 8.5 g/L, zeocin 50 μg/mL): 0
- colony growth rates (diameter in mm) ([2]; salt 8.5 g/L, zeocin 50 μg/mL): 0 mm
- colony numbers ([2]; salt 8.5 g/L, zeocin 100 μg/mL): 0
- colony growth rates (diameter in mm) ([2]; salt 8.5 g/L, zeocin 100 μg/mL): 0 mm
- colony numbers ([2]; salt 18 g/L, zeocin 10 μg/mL): 11
- colony growth rates (diameter in mm) ([2]; salt 18 g/L, zeocin 10 μg/mL): 4.1 mm
- colony numbers ([2]; salt 18 g/L, zeocin 30 μg/mL): 0
- colony growth rates (diameter in mm) ([2]; salt 18 g/L, zeocin 30 μg/mL): 0 mm
- colony numbers ([2]; salt 18 g/L, zeocin 50 μg/mL): 0
- colony growth rates (diameter in mm) ([2]; salt 18 g/L, zeocin 50 μg/mL): 0 mm
- colony numbers ([2]; salt 18 g/L, zeocin 100 μg/mL): 0
- colony growth rates (diameter in mm) ([2]; salt 18 g/L, zeocin 100 μg/mL): 0 mm
- colony numbers ([2]; salt 35 g/L, zeocin 10 μg/mL): 22.5
- colony growth rates (diameter in mm) ([2]; salt 35 g/L, zeocin 10 μg/mL): 4.1 mm
- colony numbers ([2]; salt 35 g/L, zeocin 30 μg/mL): 11
- colony growth rates (diameter in mm) ([2]; salt 35 g/L, zeocin 30 μg/mL): 1.9 mm
- colony numbers ([2]; salt 35 g/L, zeocin 50 μg/mL): 5
- colony growth rates (diameter in mm) ([2]; salt 35 g/L, zeocin 50 μg/mL): 0.6 mm
- colony numbers ([2]; salt 35 g/L, zeocin 100 μg/mL): 0
- colony growth rates (diameter in mm) ([2]; salt 35 g/L, zeocin 100 μg/mL): 0 mm
- zeocin concentration at which the parental strain grew [3]: ≤ 30 µg/mL
- growth of transformed strains ([4]; compared with 1000 μg/mL or less): most strains grew remarkably slower
- zeocin resistance of some transformant strains ([4]; e.g., FIG. 13 legend): highly resistant
- growth of wild type strains [5]: none of the wild type strains were able to grow
- growth of transformed strains [6]: only the transformed strains grew well
- colonies seen per plate ([7]; 50 μg/mL zeocin): Only a few of colonies were seen
- colony sectors with visible colony-morphology changes ([7]; 50 μg/mL zeocin): observed in some of the colonies
- colony numbers per plate ([7]; 10, 30, and 50 μg/mL zeocin): gradually reduced
- sizes of the colonies ([7]; 30 to 50 μg/mL zeocin, six days post inoculation): gradually decreased
- concentration at which zeocin worked best as mutagen ([7]; conditions of Example 13): 50 µg/mL
- concentration range in which zeocin was effective as mutagen ([7]; conditions of Example 13): 10 to 200 µg/mL
- stability of zeocin ([8]; high salt concentrations): unstable at high salt concentrations
- solubility of zeocin ([8]; water): water soluble
